From publication PMC4979471 (Cell Death Discovery, 2015)
“Also recorded” adds a separate entry of the source. Like-named read-outs stand apart in the source and are kept apart here.

Columns and labels:
[1] = target: T1, RIP1 (ATP-binding pocket) (Homo sapiens, UniProt Q13546); assay: Fluorescent polarization (FP) binding assay
T1 construct: GST-RipK1 (1–375) was purified; made in house
T1 sequence (Q13546 1-375): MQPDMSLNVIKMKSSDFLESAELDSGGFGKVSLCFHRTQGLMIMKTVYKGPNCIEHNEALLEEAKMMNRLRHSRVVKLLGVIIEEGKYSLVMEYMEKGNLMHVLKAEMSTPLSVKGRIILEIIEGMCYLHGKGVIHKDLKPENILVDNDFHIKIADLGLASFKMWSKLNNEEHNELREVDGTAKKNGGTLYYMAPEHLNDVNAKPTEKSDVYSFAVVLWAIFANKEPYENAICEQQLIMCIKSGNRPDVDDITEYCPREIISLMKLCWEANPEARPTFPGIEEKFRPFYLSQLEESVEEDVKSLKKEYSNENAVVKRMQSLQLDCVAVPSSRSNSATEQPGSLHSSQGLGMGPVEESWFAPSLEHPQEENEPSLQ
Experimental: A FP-based binding assay was developed to quantitate interaction of novel test compounds at the ATP-binding pocket of RIP1, by competition with a fluorescently labeled ATP-competitive ligand, as previously described.[18] In brief, GST-RipK1 (1–375) was purified and was used at a final assay concentration of 10 nM.

RIP1 kinase = target: T2, RIP1 kinase (Homo sapiens, UniProt Q13546); assay: ADP-Glo kinase assay; type: biochemical
T2 construct: 10 nM GST-RIPK1 (1–375) and 50 μM ATP; made in house
Experimental: Compound potency against RIP1 kinase activity was determined using an ADP-Glo luminescence assay, which measures the conversion of ATP to ADP as previously described.[18] In brief, the primary reaction consisted of 10 nM GST-RIPK1 (1–375) and 50 μM ATP in 50 mM HEPES pH 7.5, 50 mM NaCl, 30 mM MgCl2, 1 mM DTT, 0.5 mg/ml BSA, and 0.02% CHAPS. Five microliter of enzyme and 5 μl of ATP were added to the plate at twice the final assay concentration and incubated at room temperature for 4 h. The luminescence was measured on a plate reader. Test compound inhibition was expressed as percent inhibition of internal assay controls.

C57BL/6 mice = assay: TNF+zVAD-induced shock model (temperature loss); type: in vivo, mouse; details: 15 min before TNF+zVAD
Experimental: Temperature was monitored over the course of 3 h by rectal probe.

recombinant human IDO = target: T3, recombinant human IDO (Homo sapiens, UniProt P14902); assay: IDO enzymatic assay; type: biochemical; details: in vitro enzymatic assay
T3 construct: purchased R&D Systems (Minneapolis, MN, USA)

[2] = test system: human monocytic U937 cells; assay: TNF+zVAD-induced necroptosis, CellTiter-Glo; type: cell-based; details: U-937, U937, overnight, read-out: IC50 blocking necroptosis
Experimental: (§1) Mouse fibrosarcoma L929 cells (ATCC# CCL-1) and human monocytic U937 cells (ATCC# CRL-1593.2) were cultured in RPMI media supplemented with 10% heat-inactivated FBS, 100 U/ml penicillin and […] streptomycin. BMDM were prepared from C57BL/6 mice by differentiation with 10 ng/ml M-CSF (R&D Systems) for 7 days and cultured in DMEM medium supplemented with 10% heat-inactivated FBS, 100 U/ml penicillin, 100 μg/ml streptomycin and 0.25 μg/ml amphotericin. Primary human neutrophils were isolated from human blood following the standard method comprised of sequential sedimentation in dextran, density centrifugation in Ficoll–Hypaque and lysis of contaminating red blood cells.
(§2) […] To evaluate the effect of RIP1 inhibitors, cells were pretreated with compound (dose–response) for 30 min. Induced cell death was evaluated 19–21 h later by measuring cellular ATP levels using CellTiter-Glo Luminescent Cell Viability assay (Promega, Fitchburg, WI, USA). To induce necroptosis in neutrophils, freshly isolated human neutrophils were stimulated with TNF (10 ng/ml), QVD-Oph (50 μM) and SMAC mimetic (100 nM). Induced cell death was evaluated as above.

[3] = test system: mouse fibrosarcoma L929 cells; assay: TNF+zVAD-induced necroptosis, CellTiter-Glo; type: cell-based; details: overnight, read-out: IC50 blocking necroptosis
Experimental: as §1, §2

[4] = Pharmacokinetic profile after i.p. administration; type: in vivo, C57BL/6 mice; details: 10 mg/kg i.p., mice
Experimental: Briefly, pharmacokinetic studies were conducted using n=3 animals per group for each compound. […] Blood samples were obtained at various time points following intraperitoneal injection and diluted 1 : 1 with water prior to storage at −80 °C.
Prior to bioanalysis, samples were thawed and each analyte was isolated using a method based on protein precipitation. The resulting supernatant was injected into an LC/MS/MS system optimized for detection of the compound of interest. Data were reported as quantitative drug concentrations as determined by standard calibration curve analysis. Using these optimized conditions, the typical lower limit of quantitation achieved was 1.00 ng/ml for both compounds.

[5] = test system: indoleamine-2,3-dioxygenase (IDO); details: cited from earlier work
[6] = cited from earlier work

T3 sequence (P14902 whole entry): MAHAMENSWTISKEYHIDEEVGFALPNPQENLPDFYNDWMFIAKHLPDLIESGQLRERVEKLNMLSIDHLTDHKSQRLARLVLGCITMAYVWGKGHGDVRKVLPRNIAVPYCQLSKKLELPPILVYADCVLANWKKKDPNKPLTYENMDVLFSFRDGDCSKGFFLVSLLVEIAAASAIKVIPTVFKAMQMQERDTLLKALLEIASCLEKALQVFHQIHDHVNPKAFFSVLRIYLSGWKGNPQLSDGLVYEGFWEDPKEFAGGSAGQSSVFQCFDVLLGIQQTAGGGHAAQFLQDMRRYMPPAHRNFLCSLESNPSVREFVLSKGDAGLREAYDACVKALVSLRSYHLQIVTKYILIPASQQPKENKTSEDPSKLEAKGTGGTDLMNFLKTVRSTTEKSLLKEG

With `CC(C)(C)C(=O)N1N=CC[C@@H]1c1ccccc1` [GSK′962] the “activity in the FP binding assay” value [1] was “no activity”, the “activity in blocking RIP1 kinase activity” value (RIP1 kinase) was “inactive” and the “protection from TNF+zVAD-induced temperature loss” value (C57BL/6 mice; 20 mg/kg i.p.) was “no effect”.
With `CN1C(=O)C(Cc2c[nH]c3ccccc23)NC1=S` (stereo not shown) [Nec-1, Necrostatin-1, reference compound] the IC50 [1] was 2 µM, the “drop off in potency relative to GSK′963 in the FP binding assay” value [1] was ~ 70 fold and the IC50 (RIP1 kinase; read-out: IC50 blocking RIP1 kinase activity) was 1 µM. For the same compound, the “effect on IDO activity” value (recombinant human IDO) was “no effect”, the IC50 [2] was 2 µM and the IC50 [3] was 1 µM. The “exposure compared with GSK′963” value [4] was ~ 10 fold, the “protection from TNF+zVAD-induced temperature loss” value (C57BL/6 mice; 0.2 mg/kg i.p.) was “no effect” and the “protection from TNF+zVAD-induced temperature loss” value (C57BL/6 mice; 2 mg/kg i.p.) was “minimal level of protection; also recorded: no significant protection”. For the same compound, the IDO inhibition ([5]; ref 22) was “known to inhibit”, the IDO inhibition ([5]; ref 25) was “potent inhibitor” and the in vivo half-life ([6]; ref 23) was “short”. For the same compound, the metabolic stability ([6]; ref 23) was “quite limited”.
For `CN1C(=O)NC(Cc2c[nH]c3c(Cl)cccc23)C1=O` (stereo not shown) [Nec-1s, 7-Cl-O-Nec-1], the IDO activity ([5]; ref 24) is listed as “lacks IDO activity” and the pharmacokinetic properties ([6]; ref 24) is listed as “improved pharmacokinetic properties”.
In the case of `CC1=CC(=O)c2ccccc2C1=O` [menadione, reference compound], the “effect on IDO activity” value (recombinant human IDO) is reported as “inhibited enzyme activity with the expected potency”.
